We go through 1 molecule from patent publication US10183030B2, “17α,21-diesters of cortexolone for use in the treatment of tumors” (COSMO TECHNOLOGIES LTD., priority 2014, dated 2019).

As a reminder, the IC50 is the concentration needed to halve the response being measured. As usually defined, the inhibition is the drop in the measured response relative to a control, in per cent.

Data set [1] can be described thus: In vitro metabolism in rat plasma. Type of data set: in vitro ADME. The settings on record: 37° C.; FIG. 13. The method, then: (§1) To obtain some insights on the metabolism of CB-03-10 in human and rat plasma, a specific assay was designed. Briefly the compound was incubated at different time in human and rat plasma at 37° C. After incubation the samples were tested for presence of the intact compound by liquid chromatography.

In data set [2] the test system is LNCaP xenograft tumor. The data set is described as follows: LNCaP human prostate cancer xenograft in nude mice, oral dosing. Type of data set: in vivo, mouse. Here is the method:
3×10^6 LNCaP cells suspended in matrigel were subcutaneously injected (on the right flank) into 6 week old male athymic nude mice. Tumors were measured as described above. Treatment with CB-03-10 and controls compounds was initiated after the tumor had reached 50 mm^3. […] Oral dosing was daily (100 mg/Kg in 200 μL/mouse) for 28 consecutive days. Results were plotted as average change in tumor volume relative to the start of treatment.
(In general: Xenograft models place foreign cells or tissue in a host animal.)

Data set [3] is described as follows: In vivo pharmacokinetics in mouse plasma. The conditions noted are these: mice; iv 20 mg/kg, SC 40 mg/kg, PO 40 mg/kg. Here is the method:
The pharmacokinetic of CB-03-10 was evaluated in plasma of mice after intravenous (IV), subcutaneous (SC) and oral administration (PO).
Mice (3 per group) were administered with the following doses, blood was collected at the indicated times. Plasma samples were analyzed by HPLC-MS/MS.

For data set [4], the system named is MiaPaca2 (AR low) pancreatic cancer cells. The data set is described as follows: ATP-dependent proliferation/viability assay, MiaPaca2. The format is cell-based. The settings on record: Homo sapiens, read-out: IC50. Here is the method:
(§2) The experimental method consisted of: • 1. […] After 24 hours, 10 nM DHT (dihydrotestosterone) with or without anti-androgen compounds, or DMSO vehicle (negative control) was added to the cultures. • 3.
(§3) Each compounds was titrated from 3 uM to 200 uM.

The nature of data set [5]: In vitro metabolism in human plasma. The settings on record: 37° C.; FIG. 13. The format is in vitro ADME. Here is the method:
as §1

The subject of data set [6] is HT29 epithelial intestinal cancer cells. The data set is described as follows: MTT colorimetric assay on HT29. Type of data set: cell-based. The conditions noted are these: Homo sapiens, 72 h. The method, then: The experiment was performed to test and define anticancer activity in vitro of Cortexolone 17α-benzoate and cortexolone 17α-valerate-21-propionate on cell lines representatives of epithelial intestinal tumors, namely HT29. The experiment method consisted in: • 1. Monolayer HT-29 cells were plated in: 96-wells plates at the density of 2×10^4 cells/mL. The cells plated were kept at 37° C. in 5% CO2 and left to attach for 24 h. • 2. Thereafter the cells were incubated for 72 h with the test compounds at the concentrations each of […]. • 3. After 72 h of treatment, the MTT colorimetric assay was performed.

For data set [7], the system named is Panc1 (AR+) pancreatic cancer cells. The data set is described as follows: ATP-dependent proliferation/viability assay, Panc1. Type of data set: cell-based. The settings on record: Homo sapiens, read-out: IC50. Here is the method:
as §2, §3

For data set [8], the system named is MiaPaca-2 xenograft tumor. The data set is described as follows: MiaPaca2 human pancreatic tumor xenograft in nude mice, subcutaneous treatment. Type of data set: in vivo, mouse. Here is the method:
The test was carried out comparing the anti-tumor activity of cortexolone 17α-benzoate at two different dosages (8.0 mg/kg, corresponding approximately at 230 μM, and 40 mg/kg, corresponding approximately at 1150 μM), versus the vehicle (i.e. 0.4% (v/v) tween 80 and 0.5% (w/v) carboxymethylcellulose in normal saline) and versus the comparator Cyproterone Acetate at two different dosages (7.4 mg/kg and 37 mg/kg).
1×10^6 MiaPaca-2 cells suspended in matrigel were subcutaneously injected into 6 week old athymic nude mice.
The treatment with the tested compounds, with the vehicle and with the comparative compound, was initiated after the tumor volume has reached 50 mm^3 after transplantation. All compounds were injected 100 μL/mouse subcutaneously of low dose solution (approximately 230 μM) or 100 μL/mouse of high dose solution (approximately 1150 μM) of cortexolone 17α-benzoate, vehicle and cyproterone acetate, respectively. Compounds and controls were administered subcutaneously daily for 28 days.
Tumors were measured every 4 days with a digital caliper.
The results are plotted in FIG. 1 as average change in tumor volume relative to the start of treatment. Tumor volume was calculated according to the formula 0.5236(r1)^2(r2) where r1<r2.
The test was carried out comparing the anti-tumor activity of cortexolone 17α-valerate-21-propionate (CB-03-10) at two different dosages (approximately 8.6 mg/kg and 43 mg/kg) versus the vehicle (i.e. 0.4% (v/v) tween 80 and 0.5% (w/v) carboxymethylcellulose in normal saline) and versus the comparator Cyproterone Acetate at two different dosages (7.4 mg/kg and 37 mg/kg).
The treatment with the tested compound, with the vehicle and with the comparative compound was initiated after the tumor has reached a volume of 50 mm^3 after implantation, injecting subcutaneously 100 μL/mouse of low dose solution (approximately 230 μM) or 100 μL/mouse of high dose solution (approximately 1150 μM) of cortexolone 17α-valerate-21-propionate (CB-03-10), vehicle and cyproterone acetate, respectively. Compounds and controls were administered subcutaneously daily for 28 days.
The results are plotted in FIG. 2 as average change in tumor volume relative to the start of treatment. Tumor volume was calculated according to the formula 0.5236(r1)^2(r2) where r1<r2.
CPA a well-known anti-androgen was used as control. Briefly 1×10^6 MiaPaca2 cells suspended in matrigel were subcutaneously (SC) injected into 6 week old male athymic nude mice. Tumors were measured every 4 days with a digital caliper. Tumor volume was calculated according to the formula: 0.5236(r1) 2(r2) where r1<r2. Treatment with CB-03-10 and controls compounds was initiated after the tumor had reached 50 mm^3. Compounds diluted in DMSO/2-hydroxypropyl b-cyclodextrin (vehicle) were injected subcutaneously (SC) daily (100 μL/mouse) at the concentration of 40 mg/Kg daily for 28 consecutive days.

Setting [9] is: Example 22, 40 mg/Kg SC daily for 28 days.

Molecules are shown by their SMILES. Read-outs that look alike come from different tables or passages of the source.

With `CCCCC(=O)O[C@]1(C(=O)COC(=O)CC)CC[C@H]2[C@@H]3CCC4=CC(=O)CC[C@]4(C)[C@H]3CC[C@@]21C` [CB-03-10, cortexolone 17α-valerate-21-propionate], in data set [1], the “degradation in rat plasma” value is “degraded more rapidly in rat compared to human plasma”. The “average tumor volume smaller than in the vehicle group” value in data set [2] (6 weeks after treatment was stopped, oral 100 mg/Kg) is 3.6 times. Further, the “statistical significance of tumor growth versus vehicle” value in data set [2] (FIG. 16, oral gavage) is “statistically significantly different from day 7 up to day 60”. Also, the “plasma level of parent compound” value in data set [3] is listed as “undetectable in plasma even after 1 hour regardless of the administration route”. Besides, the 50% inhibitory concentration (IC50) in data set [4] (MIA PaCa-2, 72 h, MiaPaca2, 10 nM DHT, 3 days, Examples 3-4, Experiment 1) is 43 µM; in data set [4] (MIA PaCa-2, MiaPaca2, Example 7, Experiment 1), 34 µM; in data set [7] (PANC-1, 72 h, Panc1, 10 nM DHT, 3 days, Examples 3-4, Experiment 1), 66 µM; in data set [7] (PANC-1, Panc1, Example 7, Experiment 1), 68 µM. The “degradation in human plasma” value in data set [5] is listed as “rapidly degraded to CB-03-05”. The molecule also gave an inhibition at 0.8 µM in data set [6] (HT-29, 0.8 micromolar) of 0.44%. Besides, in data set [6] (HT-29, 4 micromolar), the inhibition at 4 µM was determined as 14.2%. This molecule registered an inhibition at 20 µM in data set [6] (HT-29, 20 micromolar) of 25.5%. This molecule also returned an inhibition at 100 µM in data set [6] (HT-29, 100 micromolar) of 89.8%. Moreover, the inhibition at 500 µM in data set [6] (HT-29, 500 micromolar) came out at 92.1%. The “pancreatic tumor size increase relative to the initial size, during the treatment period” value in data set [8] (Example 22, 40 mg/Kg SC daily for 28 consecutive days) is on record as “less than 5 fold”. Further, in data set [8] (setting [9]), the Median survival was 70 days. In data set [8] (setting [9]), the “tumor size increase 14 days after treatment was stopped” value was determined as 6 fold. Further, in data set [8] (Examples 5 and 6, SC daily for 28 days, test compounds at high dose (approximately 1150 μM, 100 μL/mouse), Cyproterone Acetate treatment groups 7.4 and 37 mg/kg), the “pancreatic tumor size increase relative to the start of treatment” value is recorded as “less than 5 fold”.
